Results on 7 molecules are retold here after patent US20160272645A1, “Heterocyclic Compounds and Methods of Use” (MEDIVATION TECHNOLOGIES, INC., priority 2013, published 2016).

Structures are written as SMILES.

Assay [1] concerns CD69+B220+ cells (mouse spleen cells). Nature of the assay: B cell activation assay (IgD-stimulated CD69 on B220+ spleen cells, FACS). The format is cell-based. To be noted: 100 nM test compound, 30 min, then IgD 3 μg/mL 4 h, read-out: CD69 @ 100 nM (% Inh). The method, then: 1 Female mouse approximately 2 months old was euthanized with CO2 and the spleen removed. The tissue was homogenized with a polished glass microscope slide. The cells were collected in 5 mL complete medium (RPMI+10% FBS+pen/strep), placed in a 15 mL falcon tube and centrifuged at 500×g for 5 min. The supernatant was discarded and the pellet was resuspended in 3 mL of ACK lysis buffer (NH4Cl 0.17M, KHCO3 10 mM, EDTA-Na2 0.1 mM, pH 7.2), incubated at 37° C. for 5 min. 2 mL complete medium was added and the mixture centrifuged at 500×g for 5 min. The supernatant was discarded and the pellet resuspended in 1 mL complete medium. The mixture was passed through a […] cell strainer and collect in 50 mL falcon tube. Enough medium was added to have a total of 10 mL. The cells were counted and seeded in 24 or 48-well plate in 1 mL complete medium at 10^6 cells/mL. The plate was placed in a 37° C. incubator for 15 min. The cells were treated for 30 min at 37° C. with 100 nM test compound dissolved in 100% DMSO. 3 μL IgD (Accurate chemical and scientific corp.) was added at a final concentration of 3 μg/mL and the mixture incubated at 37° C. for 4 h. The cells were collected in 1.5 mL eppendorf tubes, centrifuged at 500×g for 5 min and then resuspended in 100 μL of PBS+2% FBS. The following antibodies were added: α-B220 PE (pharmingen #553090), α-CD69 APC (pharmingen #60689), live/dead fixable aqua dead cell stain kit (life technologies # L34957) all at 1:300, and the mixture incubated for 15 min at 4° C. in the dark. To this was added 900 μL of PBS+2% FBS and the mixture centrifuged at 500×g for 5 min. The supernatant was removed and the pellet resuspended in 300 μL of PBS+2% FBS and mixed well. The mixture was transferred to a cytometer tube. The samples were run in the FACS Canto II cytometer and quantified by the number of CD69+B220+ cells as a percentage of the total number of B220+ alive cells.

For another assay, the target named is T1, PI3Kδ (Homo sapiens, UniProt O00329).
T1 construct: purchased Reaction Biology Corporation
T1 sequence (O00329 whole entry): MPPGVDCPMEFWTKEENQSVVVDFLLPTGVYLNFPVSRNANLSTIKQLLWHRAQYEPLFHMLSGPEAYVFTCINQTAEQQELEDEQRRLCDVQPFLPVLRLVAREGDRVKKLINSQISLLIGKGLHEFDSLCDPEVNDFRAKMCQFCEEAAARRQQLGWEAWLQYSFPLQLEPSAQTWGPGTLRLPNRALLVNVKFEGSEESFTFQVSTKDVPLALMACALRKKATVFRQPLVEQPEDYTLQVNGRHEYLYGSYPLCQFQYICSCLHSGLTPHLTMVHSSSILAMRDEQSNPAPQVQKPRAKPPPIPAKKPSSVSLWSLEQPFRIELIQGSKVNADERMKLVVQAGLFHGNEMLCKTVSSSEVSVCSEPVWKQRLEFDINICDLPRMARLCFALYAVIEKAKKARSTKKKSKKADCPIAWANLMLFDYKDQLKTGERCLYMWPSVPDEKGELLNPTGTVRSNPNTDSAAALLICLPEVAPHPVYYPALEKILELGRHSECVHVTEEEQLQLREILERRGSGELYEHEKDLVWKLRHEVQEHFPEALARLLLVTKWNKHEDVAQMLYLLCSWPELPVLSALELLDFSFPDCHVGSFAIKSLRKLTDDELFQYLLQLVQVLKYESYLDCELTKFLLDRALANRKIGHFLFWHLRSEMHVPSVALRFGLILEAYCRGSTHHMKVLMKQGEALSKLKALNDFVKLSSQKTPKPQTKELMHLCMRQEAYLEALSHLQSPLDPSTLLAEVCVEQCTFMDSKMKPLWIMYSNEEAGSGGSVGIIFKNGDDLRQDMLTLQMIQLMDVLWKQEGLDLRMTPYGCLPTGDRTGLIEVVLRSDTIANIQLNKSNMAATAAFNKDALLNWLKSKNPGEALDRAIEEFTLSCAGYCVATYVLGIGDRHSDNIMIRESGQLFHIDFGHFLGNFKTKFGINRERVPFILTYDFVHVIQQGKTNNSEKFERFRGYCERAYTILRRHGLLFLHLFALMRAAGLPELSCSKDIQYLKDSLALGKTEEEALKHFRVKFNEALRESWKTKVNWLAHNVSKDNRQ
T1 sequence (P27986 whole entry partner): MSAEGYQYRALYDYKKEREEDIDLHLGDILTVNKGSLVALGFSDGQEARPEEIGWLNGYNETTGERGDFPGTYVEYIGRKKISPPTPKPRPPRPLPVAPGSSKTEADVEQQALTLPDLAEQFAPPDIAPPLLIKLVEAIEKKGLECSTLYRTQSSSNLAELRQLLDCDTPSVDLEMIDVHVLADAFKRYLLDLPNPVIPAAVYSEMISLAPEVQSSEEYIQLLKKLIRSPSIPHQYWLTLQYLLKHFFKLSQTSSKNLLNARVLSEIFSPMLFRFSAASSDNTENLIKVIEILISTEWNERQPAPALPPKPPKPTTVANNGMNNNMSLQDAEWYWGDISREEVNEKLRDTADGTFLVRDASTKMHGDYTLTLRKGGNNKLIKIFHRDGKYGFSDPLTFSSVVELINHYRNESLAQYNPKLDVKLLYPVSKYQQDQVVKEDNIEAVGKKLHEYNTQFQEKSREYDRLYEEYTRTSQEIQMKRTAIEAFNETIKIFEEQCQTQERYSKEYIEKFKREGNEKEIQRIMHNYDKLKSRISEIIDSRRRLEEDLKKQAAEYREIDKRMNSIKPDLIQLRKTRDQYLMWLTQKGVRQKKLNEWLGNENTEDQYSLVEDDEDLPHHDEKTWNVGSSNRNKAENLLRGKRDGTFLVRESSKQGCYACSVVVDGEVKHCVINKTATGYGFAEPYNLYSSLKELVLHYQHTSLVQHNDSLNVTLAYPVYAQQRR
Nature of the assay: PI3Kδ kinase profiling, HTRF PIP3 displacement assay (Reaction Biology). The format is biochemical. To be noted: ATP 10 μM; for inhibition at 0.1 µM: compound 0.1 μM, read-out: PI3Kδ @ 0.1 μM (% Inh); for inhibition at 0.01 µM: compound 0.01 μM, read-out: PI3Kδ @ 0.01 μM (% Inh). (In general: In TR-FRET formats the signal depends on donor and acceptor labels being close together.)

The next assay addresses T2, PI3Kγ (Homo sapiens, UniProt P48736).
T2 construct: purchased Reaction Biology Corporation
Nature of the assay: PI3K isoform profiling, PI3Kγ (PI3Kδ protocol). The format is biochemical. To be noted: for IC50: 10 dose IC50; for inhibition at 0.3 µM: compound 0.3 μM, read-out: PI3Kγ @ 0.3 μM (% Inh). From the text: (§1) PI3Kδ assay: The PIP3 product is detected by displacement of biotin-PIP3 from an energy transfer complex consisting of Europium labeled anti-GST monoclonal antibody, a GST-tagged pleckstrin homology (PH) domain, biotinylated PIP3 and Streptavidin-Allophycocyanin (APC). Excitation of Europium in the complex results in an energy transfer to the APC and a fluorescent emission at 665 nm. The PIP3 product formed by PI3-Kinase (h) activity displaces biotin-PIP3 from the complex resulting in a loss of energy transfer and thus a decrease in signal. This is a 3-step reaction: First, the kinase reaction with PIP2 substrate is carried out in the presence of ATP (10 μM), and the reaction is quenched with stop Solution, and then finally detect by adding Detection Mixture followed by incubation (10 min). Reaction procedure: 1) Prepare substrate in freshly prepared Reaction Buffer. 2) Deliver kinase into the substrate solution and gently mix. 3) Deliver compounds in 100% DMSO (1 μM) into the kinase reaction mixture by Acoustic technology (Echo550; nanoliter range), incubate for 10 min at RT. 4) Deliver ATP into the reaction mixture to initiate the reaction. 5) Incubate for 30 min at 30° C. 6) Quench the reaction with Stop Solution. 7) Add Detection Mixture, and incubate for overnight. 8) Measure HTRF: Ex=320 nm, ratio of Em=615 nm and Em=665 nm. The emission ratio is converted into μM PIP3 production based on PIP3 standard curves. The nonlinear regression to obtain the standard curve and IC50 values are performed using Graphpad Prism software. Assay Buffer: HEPES 50 mM (pH7.0), NaN3 0.02%, BSA 0.01%, Orthovanadate 0.1 mM, 1% DMSO. Detection buffer: HEPES 10 mM (pH7.0), BSA 0.02%, KF 0.16 M, EDTA 4 mM. Substrate: 10 μM PIP2 substrate (PI(4,5)P2).
(§2) Compounds of the invention were profiled in a 10 dose IC50 panel against PI3Kα, PI3Kβ, and PI3Kγ kinases, provided by Reaction Biology Corporation, applied to the PI3Kδ protocol provided in Example B1.

For the next assay, the target named is T3, BTK (Homo sapiens, UniProt Q06187).
T3 construct: purchased Reaction Biology Corporation
T3 sequence (Q06187 whole entry): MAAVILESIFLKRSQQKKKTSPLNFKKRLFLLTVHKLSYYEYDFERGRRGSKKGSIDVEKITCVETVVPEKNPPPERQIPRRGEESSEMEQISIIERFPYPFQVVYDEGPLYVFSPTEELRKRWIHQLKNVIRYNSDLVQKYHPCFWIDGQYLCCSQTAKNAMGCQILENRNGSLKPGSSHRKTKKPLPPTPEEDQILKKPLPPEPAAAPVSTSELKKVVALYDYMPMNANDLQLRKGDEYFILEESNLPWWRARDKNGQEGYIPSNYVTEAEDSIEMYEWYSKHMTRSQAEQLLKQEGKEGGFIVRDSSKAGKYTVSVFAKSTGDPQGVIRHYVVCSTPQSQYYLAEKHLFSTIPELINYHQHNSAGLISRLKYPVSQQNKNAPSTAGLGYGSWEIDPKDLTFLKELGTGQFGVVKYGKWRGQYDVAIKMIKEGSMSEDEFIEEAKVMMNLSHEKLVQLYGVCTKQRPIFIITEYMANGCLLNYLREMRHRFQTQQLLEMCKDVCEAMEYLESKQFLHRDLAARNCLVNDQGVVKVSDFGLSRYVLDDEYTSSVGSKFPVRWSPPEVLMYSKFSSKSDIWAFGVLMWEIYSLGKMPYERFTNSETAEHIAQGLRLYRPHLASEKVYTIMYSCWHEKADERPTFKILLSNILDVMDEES
The assay can be described thus: BTK kinase profiling, HotSpot radiometric assay (Reaction Biology). It is filed as biochemical. The settings on record: for inhibition at 0.1 µM: compound 0.1 μM, read-out: BTK @ 0.1 μM (% Inh); for inhibition at 0.1 µM / inhibition at 1 µM / inhibition at 0.01 µM: ATP 10 μM; for inhibition at 1 µM: compound 1 μM, read-out: BTK @ 1 μM (% Inh); for inhibition at 0.01 µM: compound 0.01 μM, read-out: BTK @ 0.01 μM (% Inh). Here is the method: Compounds of the invention were profiled in a 10 dose IC50 panel against BTK and PI3Kδ, both provided by Reaction Biology Corporation.
BTK assay: In vitro profiling protein kinases was performed using the “HotSpot” assay platform. Briefly, specific kinase/substrate pairs along with required cofactors were prepared in reaction buffer. Compounds were prepared as 10 mM stock solutions in DMSO. Compounds were delivered into the reaction, followed 15-20 minutes later by addition of a mixture of ATP (Sigma, St. Louis Mo.) and ^33P ATP (Perkin Elmer, Waltham Mass.) to a final concentration of 10 μM. Reactions were carried out at RT for 120 min, followed by spotting of the reactions onto P81 ion exchange filter paper (Whatman Inc., Piscataway, N.J.). Unbound phosphate was removed by extensive washing of filters in 0.75% Phosphoric acid. […] ICso values and curve fits were obtained using Prism (GraphPad Software). Buffer Conditions: 20 mM Hepes (pH 7.5), 10 mM MgCl2, 1 mM EGTA, 0.02% Brij35, 0.02 mg/mL BSA, 0.1 mM Na3VO4, 2 mM DTT, 1% DMSO.

The target of a further assay is T4, PI3Kα (Homo sapiens, UniProt P42336).
T4 construct: purchased Reaction Biology Corporation
T4 sequence (P42336 whole entry): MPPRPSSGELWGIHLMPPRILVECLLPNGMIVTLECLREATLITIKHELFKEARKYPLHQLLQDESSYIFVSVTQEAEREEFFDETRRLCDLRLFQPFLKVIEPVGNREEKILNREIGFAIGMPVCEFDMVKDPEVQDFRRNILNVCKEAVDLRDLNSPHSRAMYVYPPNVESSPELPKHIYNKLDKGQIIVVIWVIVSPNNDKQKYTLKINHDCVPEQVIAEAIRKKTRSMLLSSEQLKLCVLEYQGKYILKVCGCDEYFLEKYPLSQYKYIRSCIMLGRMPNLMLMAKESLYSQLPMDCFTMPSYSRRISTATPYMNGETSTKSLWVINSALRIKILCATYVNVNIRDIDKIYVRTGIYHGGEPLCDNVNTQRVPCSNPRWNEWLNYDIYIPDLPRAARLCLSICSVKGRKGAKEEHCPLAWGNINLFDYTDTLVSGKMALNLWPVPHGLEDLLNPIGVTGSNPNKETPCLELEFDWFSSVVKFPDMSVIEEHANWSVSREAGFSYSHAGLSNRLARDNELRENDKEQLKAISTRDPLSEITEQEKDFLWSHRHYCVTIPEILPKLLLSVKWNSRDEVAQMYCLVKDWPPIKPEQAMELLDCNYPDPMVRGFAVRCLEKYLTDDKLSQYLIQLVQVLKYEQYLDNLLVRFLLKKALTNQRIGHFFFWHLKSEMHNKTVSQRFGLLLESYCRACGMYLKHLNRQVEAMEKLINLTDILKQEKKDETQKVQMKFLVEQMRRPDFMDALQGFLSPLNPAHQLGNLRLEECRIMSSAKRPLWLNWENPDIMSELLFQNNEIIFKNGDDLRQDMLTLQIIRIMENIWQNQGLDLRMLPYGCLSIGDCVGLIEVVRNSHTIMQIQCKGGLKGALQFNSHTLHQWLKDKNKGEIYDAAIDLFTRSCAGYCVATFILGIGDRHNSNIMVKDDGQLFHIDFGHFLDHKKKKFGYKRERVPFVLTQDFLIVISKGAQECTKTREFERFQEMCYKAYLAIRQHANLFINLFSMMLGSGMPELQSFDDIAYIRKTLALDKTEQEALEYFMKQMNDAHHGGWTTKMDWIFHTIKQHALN
T4 sequence (P27986 whole entry partner): as the sequence (P27986 whole entry partner) above
Nature of the assay: PI3K isoform profiling, PI3Kα (PI3Kδ protocol). It is filed as biochemical. To be noted: for IC50: 10 dose IC50; for inhibition at 0.3 µM: compound 0.3 μM, read-out: PI3Kα @ 0.3 μM (% Inh).
Text: as §1, §2

T2 sequence (P48736 whole entry): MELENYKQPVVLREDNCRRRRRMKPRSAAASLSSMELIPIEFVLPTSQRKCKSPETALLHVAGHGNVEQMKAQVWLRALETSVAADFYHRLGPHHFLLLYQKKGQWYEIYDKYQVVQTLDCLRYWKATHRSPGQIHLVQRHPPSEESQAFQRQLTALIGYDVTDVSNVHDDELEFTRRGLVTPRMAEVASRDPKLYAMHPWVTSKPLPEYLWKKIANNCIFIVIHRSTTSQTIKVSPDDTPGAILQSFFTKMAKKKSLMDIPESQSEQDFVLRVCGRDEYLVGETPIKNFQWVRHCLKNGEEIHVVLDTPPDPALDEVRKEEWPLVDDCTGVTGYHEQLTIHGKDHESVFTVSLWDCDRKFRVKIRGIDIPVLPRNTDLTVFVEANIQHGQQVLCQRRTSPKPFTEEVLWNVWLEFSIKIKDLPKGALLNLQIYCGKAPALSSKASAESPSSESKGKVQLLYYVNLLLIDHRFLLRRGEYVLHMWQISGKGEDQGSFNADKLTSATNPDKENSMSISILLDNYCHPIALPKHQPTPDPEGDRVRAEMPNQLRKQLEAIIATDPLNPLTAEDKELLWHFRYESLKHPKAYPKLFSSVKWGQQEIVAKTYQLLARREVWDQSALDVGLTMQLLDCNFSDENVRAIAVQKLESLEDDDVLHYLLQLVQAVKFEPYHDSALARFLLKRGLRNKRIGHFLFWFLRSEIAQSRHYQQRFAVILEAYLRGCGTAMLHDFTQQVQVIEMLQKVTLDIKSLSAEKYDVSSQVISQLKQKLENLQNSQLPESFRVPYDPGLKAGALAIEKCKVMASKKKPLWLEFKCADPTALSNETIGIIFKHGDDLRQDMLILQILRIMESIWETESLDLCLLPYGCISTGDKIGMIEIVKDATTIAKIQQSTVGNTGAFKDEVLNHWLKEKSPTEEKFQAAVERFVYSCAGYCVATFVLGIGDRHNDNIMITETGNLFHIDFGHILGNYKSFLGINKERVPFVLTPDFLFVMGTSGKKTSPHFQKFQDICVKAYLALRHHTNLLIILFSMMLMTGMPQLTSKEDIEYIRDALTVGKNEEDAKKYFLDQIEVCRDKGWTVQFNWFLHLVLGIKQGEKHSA

In general, IC50 refers to the point on the concentration scale where inhibition reaches its midpoint. A high value points to weaker potency. As for `C=CC(=O)N(CCn1nc(-c2cc(O)cc(F)c2)c2c(N)ncnc21)c1ccccc1` [Compound 2, N-(2-(4-amino-3-(3-fluoro-5-hydroxyphenyl)-1H-pyrazolo[3,4-d]pyrimidin-1-yl)ethyl)-N-phenylacrylamide], the inhibition at 0.1 µM in assay [1] was -114 ± 72.2%; at PI3Kδ, 39.1%; at BTK, 94.1%. The values for the IC50 at PI3Kγ, against BTK and against PI3Kα were 9.07 µM, 0.0039 µM and 4.21 µM, respectively. Further, the inhibition at 0.3 µM at PI3Kγ was -2.49%; at PI3Kα, 20.1%.
For the molecule `C=CC(=O)N(CCn1nc(-c2cc(O)cc(F)c2)c2c(N)ncnc21)Cc1ccccc1F` [Compound 11, N-[2-[4-amino-3-(3-fluoro-5-hydroxy-phenyl)pyrazolo[3,4-d]pyrimidin-1-yl]ethyl]-N-[(2-fluorophenyl)methyl]prop-2-enamide], the inhibition at 0.1 µM in assay [1] was -23.7 ± 39.7%; at PI3Kδ, 54.2%; at BTK, 93.8%. The inhibition at 0.3 µM at PI3Kγ came out at 21.4%. The results for the half-maximal inhibitory concentration (IC50) against BTK and on PI3Kα were 0.0074 µM and 3.22 µM, respectively. At BTK, the inhibition at 1 µM turned out to be 97.2%.
As to `C=CC(=O)N(CCn1nc(-c2cc(O)cc(F)c2)c2c(N)ncnc21)Cc1ccccc1` [Compound 5, N-(2-(4-amino-3-(3-fluoro-5-hydroxyphenyl)-1H-pyrazolo[3,4-d]pyrimidin-1-yl)ethyl)-N-benzylacrylamide], the inhibition at 0.1 µM amounted to 12.5 ± 22.3% in assay [1], 70.3% at PI3Kδ and 94% on BTK. Further, the 50% inhibitory concentration (IC50) against PI3Kγ came out at 10.5 µM; against BTK it was 0.0037 µM; at PI3Kα, 3.32 µM. Moreover, the inhibition at 0.3 µM on PI3Kγ was determined as 34.9%; at PI3Kα, 26.4%.
As for `C=CC(=O)N(CCn1nc(-c2cc(O)cc(F)c2)c2c(N)ncnc21)Cc1ccc(Cl)cc1` [Compound 12, N-{2-[4-amino-3-(3-fluoro-5-hydroxyphenyl)-1H-pyrazolo[3,4-d]pyrimidin-1-yl]ethyl}-N-[(4-chlorophenyl)methyl]prop-2-enamide], the inhibition at 0.1 µM in assay [1] is -44.7 ± 53.6%; at PI3Kδ, 66.7%; at BTK it was 94.4%. For the same molecule, the figures for the inhibition at 0.01 µM on PI3Kδ and on BTK were 37.7% and 62.8%, respectively. For the same molecule, the inhibition at 0.3 µM at PI3Kγ was 21.5%. The results for the IC50 at BTK and on PI3Kα were 0.0004 µM and 0.869 µM, respectively.
For `C=CC(=O)N(CCn1nc(-c2cc(O)c(F)c(F)c2)c2c(N)ncnc21)Cc1ccc(Cl)cc1` [Compound 16, N-{2-[4-amino-3-(3,4-difluoro-5-hydroxyphenyl)-1H-pyrazolo[3,4-d]pyrimidin-1-yl]ethyl}-N-[(4-chlorophenyl)methyl]prop-2-enamide], the results for the inhibition at 0.1 µM (in assay [1]; at PI3Kδ; at BTK) were -44.8 ± 29.4%, 73% and 93.8%, respectively. In addition, the inhibition at 0.01 µM on PI3Kδ was determined as 48.3%; on BTK, 63.4%. The inhibition at 0.3 µM at PI3Kγ came to 14.6%. Further, the IC50 at BTK is 0.0027 µM; on PI3Kα it was 0.29 µM.
For the molecule `C=CC(=O)N(CCn1nc(-c2cc(O)cc(F)c2)c2c(N)ncnc21)Cc1ccc(F)cc1` [Compound 10, N-{2-[4-amino-3-(3-fluoro-5-hydroxyphenyl)-1H-pyrazolo [3,4-d]pyrimidin-1-yl]ethyl}-N-[(4-fluorophenyl)methyl]prop-2-enamide], the figures for the inhibition at 0.1 µM (in assay [1]; at PI3Kδ; on BTK) were -23.7 ± 39.7%, 67.2% and 95.4%, respectively. Moreover, on PI3Kγ, the inhibition at 0.3 µM is -3.88%. Moreover, the IC50 against BTK was found to be 0.003 µM; against PI3Kα it was 0.504 µM. Further, the inhibition at 1 µM at BTK turned out to be 98.3%.
Regarding `Nc1ncnc2c1c(-c1cc(O)cc(F)c1)nn2CCNc1ccccc1` [Compound 1, 3-(4-amino-1-(2-(phenylamino)ethyl)-1H-pyrazolo [3,4-d]pyrimidin-3-yl)-5-fluorophenol], the inhibition at 0.1 µM in assay [1] turned out to be 74.5 ± 6.72%. Besides, the results for the inhibition at 0.3 µM at PI3Kγ and on PI3Kα were 49.7% and 50.5%, respectively. The molecule further displayed a concentration for half-maximal inhibition (IC50) at BTK of 0.167 µM.
